Reference: patent publication US8426394B2, “Progesterone antagonists such as CDB-4124 in the treatment of endometriosis, uterine fibroids, dysmenorrhea, breast cancer, etc” (Repros Therapeutics Inc., priority 2008, dated 2013)
One block for each compound: values may come before it.

How the values were obtained:
[1] = tested on: progesterone-induced endometrial proliferation in the rabbit uterus; experiment: anti-McGinty and anti-Clauberg assays (biological activity in the rabbit uterus); assay type: in vivo; conditions: in comparison to RU 486 and CDB-2914
Excerpt: Also given in Table 1 are the relative biological activities of the same compounds in the rabbit uterus by the anti-McGinty and anti-Clauberg assays. Compound CDB-2914 (listed at the end of the Table) was used as the control or reference compound (rabbit Biological Activity=1.00) for these experiments because results of experiments using CDB-2914 have been published before (Hild-Petito et al., 1996; Passaro et al., 1997; Reel et al., 1998; Lamer et al., 2000). For the anti-McGinty test, immature female rabbits received a subcutaneous injection of 5 μg estradiol in 10% ethanol/sesame oil daily for 6 consecutive days. On day 7, animals underwent sterile abdominal surgery to ligate a 3-4 cm segment of both uterine horns. The test compound in appropriate solvent was injected intraluminally into the ligated segment of one uterine horn and vehicle alone into the other. […] Five micron sections stained with hematoxylin and cosin were evaluated microscopically for the degree of endometrial glandular proliferation. The percent inhibition of endometrial proliferation for each rabbit was calculated and the mean of the group of five animals recorded. […] Five micron sections stained with hematoxylin and eosin were evaluated microscopically for the degree of endometrial glandular proliferation. […]

[2] = target: T1, glucocorticoid receptor (rbGR) (Oryctolagus cuniculus, UniProt P59667); experiment: Glucocorticoid receptor binding / anti-glucocorticoid receptor activity; set-up: species or system rabbit
T1 construct: cytosol containing PR or GR were prepared in TEGMD buffer; from tissue; host or cells: thymus of estradiol-primed immature rabbits (cytosol)
T1 sequence (P59667 1-772): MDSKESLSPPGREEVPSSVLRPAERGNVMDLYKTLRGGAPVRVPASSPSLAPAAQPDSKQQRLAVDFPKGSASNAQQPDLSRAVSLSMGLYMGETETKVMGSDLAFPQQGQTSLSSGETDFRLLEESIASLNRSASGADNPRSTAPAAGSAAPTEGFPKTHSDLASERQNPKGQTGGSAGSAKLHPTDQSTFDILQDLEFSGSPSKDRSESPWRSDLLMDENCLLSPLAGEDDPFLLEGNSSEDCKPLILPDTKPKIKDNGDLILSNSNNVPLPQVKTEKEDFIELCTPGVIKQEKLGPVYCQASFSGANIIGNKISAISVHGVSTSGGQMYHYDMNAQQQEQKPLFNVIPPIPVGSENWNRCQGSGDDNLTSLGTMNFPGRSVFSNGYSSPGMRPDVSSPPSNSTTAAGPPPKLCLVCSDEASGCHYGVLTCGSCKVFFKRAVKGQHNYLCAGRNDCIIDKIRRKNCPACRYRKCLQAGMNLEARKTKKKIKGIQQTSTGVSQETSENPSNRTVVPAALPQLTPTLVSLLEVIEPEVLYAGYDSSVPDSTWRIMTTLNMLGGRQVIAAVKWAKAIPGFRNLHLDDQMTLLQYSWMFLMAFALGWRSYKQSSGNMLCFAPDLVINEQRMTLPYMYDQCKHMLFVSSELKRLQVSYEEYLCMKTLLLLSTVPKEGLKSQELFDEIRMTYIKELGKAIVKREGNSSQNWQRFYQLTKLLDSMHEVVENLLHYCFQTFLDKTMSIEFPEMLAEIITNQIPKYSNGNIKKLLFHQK
Description: Certain antiprogestins were tested in receptor-binding assays for their ability to bind rabbit progesterone receptor (rbPR) and glucocorticoid receptor (rbGR). […] For PR binding, the cytosol was incubated with 6 nM 1,2-[^3H]progesterone (50.0 Ci/mmole) and competitors were added at concentrations from 2 to 100 nM. For binding to GR, the cytosol was incubated with 6 nM 6,7-[^3H]-dexamethasone (40 Ci/mmol) and test compounds were added at concentrations from 20 to 100 nM. After overnight incubation at 4 C, bound and unbound [^3H] steroids were separated by addition of dextran-coated charcoal and centrifugation at 2100×g for 15 min at 4 C. Supernatants containing the [3H]-steroid receptor complexes were decanted into vials containing 4 ml Optifluor (Packard Instrument Co.), vortexed, equilibrated in a liquid scintillation counter for 30 minutes and then counted for 2 minutes. […] The standards for the PR and GR assays were unlabeled progesterone and dexamethasone, respectively.

glucocorticoid receptor = target: T2, glucocorticoid receptor (Homo sapiens, UniProt P04150); conditions: Attardi et al., 2002; cited from earlier work
T2 sequence (P04150 1-777): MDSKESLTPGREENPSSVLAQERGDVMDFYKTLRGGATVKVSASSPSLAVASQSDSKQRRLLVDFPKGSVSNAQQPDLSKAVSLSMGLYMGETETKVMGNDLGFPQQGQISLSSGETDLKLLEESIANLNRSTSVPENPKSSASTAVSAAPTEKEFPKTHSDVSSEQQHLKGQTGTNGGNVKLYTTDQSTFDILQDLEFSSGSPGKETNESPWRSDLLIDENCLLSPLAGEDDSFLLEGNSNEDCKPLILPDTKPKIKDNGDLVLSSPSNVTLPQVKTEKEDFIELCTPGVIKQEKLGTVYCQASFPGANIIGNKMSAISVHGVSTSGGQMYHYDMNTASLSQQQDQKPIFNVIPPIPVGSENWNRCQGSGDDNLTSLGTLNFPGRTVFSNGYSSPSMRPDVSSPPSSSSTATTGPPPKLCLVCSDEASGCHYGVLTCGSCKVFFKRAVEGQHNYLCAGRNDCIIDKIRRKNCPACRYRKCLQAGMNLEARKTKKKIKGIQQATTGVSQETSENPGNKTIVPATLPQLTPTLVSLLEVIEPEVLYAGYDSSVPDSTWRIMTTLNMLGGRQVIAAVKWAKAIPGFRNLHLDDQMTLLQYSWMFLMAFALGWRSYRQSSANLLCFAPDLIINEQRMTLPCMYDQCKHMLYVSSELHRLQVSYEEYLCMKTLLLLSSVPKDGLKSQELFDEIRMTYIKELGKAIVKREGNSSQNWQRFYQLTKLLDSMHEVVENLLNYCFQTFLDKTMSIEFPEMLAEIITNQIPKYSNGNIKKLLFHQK

[3] = tested on: pre-menopausal adult women diagnosed with endometriosis; experiment: Six month study of Proellex (CDB-4124) in the treatment of endometriosis; assay type: in vivo, human; conditions: Lucrin
Description: Pain reduction also occurred more rapidly than with the active control, Lucrin®. The response of pain to treatment in this study was analyzed in two ways. Patients in the study maintained daily pain diaries to record the severity and frequency of pain. In addition, at each office visit, patients filled out endometriosis symptom surveys that included a questionnaire that evaluated intensity of pain on a bad day on a scale of 0-10 with 10 being the greatest intensity. […] There appeared to be a dose dependent effect on pain reduction. […] This decrease in duration of pain was statistically better (p=0.0012) than the 117.8 (74%; standard deviation 51.4 days) pain free days achieved with Lucrin®. […] Patients on CDB-4124 12.5 mg and 25 mg doses had 115.9 (66%; standard deviation 69.2 days) and 133.6 (75%; standard deviation 27.4 days) pain free days, respectively. […] The 25 mg and 12.5 mg doses of CDB-4124 were not statistically different from Lucrin®. […] The intensity of pain was assessed by the question: “On a […], with 0 being no pain and 10 being extreme pain, how intense was your pain on a bad day?” The mean scores for intensity of pain at baseline were 6.3 for the CDB-4124 groups and 6.1 for the Lucrin® group. […] At month three all four active treatment groups had statistically significant reduction in pain compared with baseline, with the following scores: 3.7 (p=0.03) for 12.5 mg CDB-4124, 3.2 (p=0.03) for 25 mg CDB-4124, 1.6 (p=0.015) for 50 mg CDB-4124 and 1.5 (p=0.016) for Lucrin®. These dose related reductions continued until month six when the values for pain intensity were 2.0 (p=0.008), 2.8 (p=0.023), 0.6 (p=0.004) and 0.7 (p=0.016), respectively. Two months after stopping treatment pain returned and was of similar intensity in all four treatment groups.

[4] = Serum corticosterone in rats; conditions: progesterone, CDB-4124 and RU-486 groups compared

Compound: CC(=O)OCC(=O)[C@@]1(OC(C)=O)CCC2C3CCC4=CC(=O)CCC4=C3C(c3ccc(N(C)C)cc3)C[C@@]21C (stereo partly drawn) [CDB-4059, 21-acetoxy-17α-acetoxy-11β-(4 N,N-dimethylaminophenyl)-19-norpregna-4,9-diene-3,20-dione]
- antiprogestin activity in the rabbit uterus [1]: strong
- anti-glucocorticoid receptor activity / glucocorticoid receptor binding [2]: minimal

Compound: CNc1ccc([C@H]2C[C@@]3(C)[C@@H](CC[C@]3(OC(C)=O)C(=O)COC)[C@@H]3CCC4=CC(=O)CCC4=C32)cc1 [CDB-4453, 21-methoxy-17α-acetoxy-11β-(4-N-methylaminophenyl)-19-norpregna-4,9-diene-3,20-dione]
- anti-glucocorticoid activity relative to parent CDB-4124 (glucocorticoid receptor): even lower

Compound: CCNC(=O)[C@@H]1CCCN1C(=O)[C@H](CCCNC(=N)N)NC(=O)[C@H](CC(C)C)NC(=O)[C@@H](CC(C)C)NC(=O)[C@H](Cc1ccc(O)cc1)NC(=O)[C@H](CO)NC(=O)[C@H](Cc1c[nH]c2ccccc12)NC(=O)[C@H](Cc1c[nH]cn1)NC(=O)[C@@H]1CCC(=O)N1 [Lupron®, leuprolide acetate, reference compound]
- intensity of pain on a bad day (score) ([3]; month six, scale 0-10, p=0.016): 0.7
- intensity of pain on a bad day (score) ([3]; month three, scale 0-10, baseline 6.1, p=0.016): 1.5

- differences in serum corticosterone between treatment groups [4]: No differences
Compound: CC#C[C@]1(O)CC[C@H]2[C@@H]3CCC4=CC(=O)CCC4=C3[C@@H](c3ccc(N(C)C)cc3)C[C@@]21C [RU 486, 11β-[p-(Dimethylamino)phenyl]-17β-hydroxy-17-(1-propynyl)estra-4,9-dien-3-one, reference compound]
